What was measured:
Format in all cases: cell-based
[1] = molecular target: AXL (phospho-AXL, Gas6-stimulated A-172 glioblastoma cells) (Homo sapiens (Human), UniProt P30530); test: AXL autophosphorylation ELISA in A-172 cells (Example E); conditions: cellular activity; AXL autophosphorylation ELISA in A-172 cells; read-out: Axl IC50
In short: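 Phospho-AXL in lysates was quantified by ELISA, normalised to DMSO (100%) and reference inhibitor (0%) controls. IC50 by 4-parameter logistic fit.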

[2] = molecular target: Met (phospho-Met, HGF-stimulated PC-3 prostate cancer cells) (Homo sapiens (Human), UniProt P08581); test: Met autophosphorylation ELISA in PC-3 cells (Example F); conditions: cellular activity; Met autophosphorylation ELISA in PC-3 cells; read-out: c-Met IC50
In short: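 Serum-starved (3 h) PC-3 cells were treated 1 h with compounds (8-point curve, 0.3% DMSO), then stimulated with 100 ng/mL human HGF for 10 min. Lysate phospho-Met (panTyr) was measured by sandwich ELISA, normalised to DMSO and reference-inhibitor controls. IC50 came from 4-parameter logistic fit.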

[3] = molecular target: KDR (phospho-KDR, VEGF165-stimulated HUVEC cells) (Homo sapiens (Human), UniProt P35968); test: KDR autophosphorylation ELISA in HUVEC cells (Example G); conditions: cellular activity; KDR autophosphorylation ELISA in HUVEC cells
In short: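 HUVEC cells, serum-starved 24 h, were treated 1 h with an 8-point compound dilution (0.3% DMSO) and then stimulated with 100 ng/mL VEGF165 for 5 min. Phospho-KDR in lysates was quantified by sandwich ELISA against a phospho-KDR standard. IC50 from a 4-parameter logistic fit, normalised between stimulated DMSO and unstimulated controls.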

[4] = molecular target: Mer (phospho-Mer, MERTK-transfected 293A cells) (Homo sapiens (Human), UniProt Q12866); test: Mer autophosphorylation ELISA in transient transfected 293A cells (Example H); conditions: cellular activity; Mer autophosphorylation ELISA in transient transfected 293A cells
In short: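 293A cells transiently transfected with human MERTK were treated 1 h in serum-free medium with an 8-point compound dilution (0.3% DMSO final). Lysates were assayed by phospho-Mer sandwich ELISA against a phospho-Mer standard; IC50 came from a 4-parameter logistic fit, normalised to DMSO (100%) and reference-inhibitor (0%) controls.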

Met (phospho-Met, HGF-stimulated PC-3 prostate cancer cells), sequence (P08581 25-1390): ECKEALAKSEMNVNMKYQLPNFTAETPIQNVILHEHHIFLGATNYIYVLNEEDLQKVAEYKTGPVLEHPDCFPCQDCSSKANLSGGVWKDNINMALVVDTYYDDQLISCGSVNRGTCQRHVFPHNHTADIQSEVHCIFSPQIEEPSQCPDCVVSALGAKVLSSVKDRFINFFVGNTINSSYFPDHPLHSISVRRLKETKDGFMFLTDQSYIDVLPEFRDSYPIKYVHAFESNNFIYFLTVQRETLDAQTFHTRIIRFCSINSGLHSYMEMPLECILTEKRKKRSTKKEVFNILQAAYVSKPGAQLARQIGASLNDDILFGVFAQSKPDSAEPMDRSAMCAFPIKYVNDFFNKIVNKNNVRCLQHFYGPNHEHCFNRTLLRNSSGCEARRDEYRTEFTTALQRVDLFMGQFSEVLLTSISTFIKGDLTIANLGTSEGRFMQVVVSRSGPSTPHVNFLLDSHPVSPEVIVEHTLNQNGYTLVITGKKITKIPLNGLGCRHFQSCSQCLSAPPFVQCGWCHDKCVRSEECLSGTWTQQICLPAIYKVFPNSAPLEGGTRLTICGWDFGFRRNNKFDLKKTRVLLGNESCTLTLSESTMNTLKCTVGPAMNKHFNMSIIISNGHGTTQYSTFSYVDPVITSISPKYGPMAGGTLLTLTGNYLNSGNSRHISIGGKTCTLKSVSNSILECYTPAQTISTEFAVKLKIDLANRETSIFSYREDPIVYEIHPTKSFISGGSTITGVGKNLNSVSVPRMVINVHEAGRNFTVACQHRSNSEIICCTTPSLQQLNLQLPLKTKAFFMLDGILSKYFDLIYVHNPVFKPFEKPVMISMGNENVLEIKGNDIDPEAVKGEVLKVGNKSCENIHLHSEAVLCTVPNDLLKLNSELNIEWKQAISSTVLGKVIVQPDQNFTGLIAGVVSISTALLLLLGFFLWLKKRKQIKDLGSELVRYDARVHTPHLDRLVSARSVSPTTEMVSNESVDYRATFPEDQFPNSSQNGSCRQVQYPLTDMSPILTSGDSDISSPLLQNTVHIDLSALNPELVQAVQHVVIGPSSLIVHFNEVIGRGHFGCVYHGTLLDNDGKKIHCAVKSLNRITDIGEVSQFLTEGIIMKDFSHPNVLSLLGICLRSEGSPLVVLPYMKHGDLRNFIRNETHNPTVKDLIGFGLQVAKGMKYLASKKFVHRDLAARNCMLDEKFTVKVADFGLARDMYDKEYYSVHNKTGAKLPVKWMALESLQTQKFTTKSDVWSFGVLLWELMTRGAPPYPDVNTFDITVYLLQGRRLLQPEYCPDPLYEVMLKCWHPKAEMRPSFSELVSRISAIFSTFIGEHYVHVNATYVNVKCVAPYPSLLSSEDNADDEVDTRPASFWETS
AXL (phospho-AXL, Gas6-stimulated A-172 glioblastoma cells), sequence (P30530 26-894): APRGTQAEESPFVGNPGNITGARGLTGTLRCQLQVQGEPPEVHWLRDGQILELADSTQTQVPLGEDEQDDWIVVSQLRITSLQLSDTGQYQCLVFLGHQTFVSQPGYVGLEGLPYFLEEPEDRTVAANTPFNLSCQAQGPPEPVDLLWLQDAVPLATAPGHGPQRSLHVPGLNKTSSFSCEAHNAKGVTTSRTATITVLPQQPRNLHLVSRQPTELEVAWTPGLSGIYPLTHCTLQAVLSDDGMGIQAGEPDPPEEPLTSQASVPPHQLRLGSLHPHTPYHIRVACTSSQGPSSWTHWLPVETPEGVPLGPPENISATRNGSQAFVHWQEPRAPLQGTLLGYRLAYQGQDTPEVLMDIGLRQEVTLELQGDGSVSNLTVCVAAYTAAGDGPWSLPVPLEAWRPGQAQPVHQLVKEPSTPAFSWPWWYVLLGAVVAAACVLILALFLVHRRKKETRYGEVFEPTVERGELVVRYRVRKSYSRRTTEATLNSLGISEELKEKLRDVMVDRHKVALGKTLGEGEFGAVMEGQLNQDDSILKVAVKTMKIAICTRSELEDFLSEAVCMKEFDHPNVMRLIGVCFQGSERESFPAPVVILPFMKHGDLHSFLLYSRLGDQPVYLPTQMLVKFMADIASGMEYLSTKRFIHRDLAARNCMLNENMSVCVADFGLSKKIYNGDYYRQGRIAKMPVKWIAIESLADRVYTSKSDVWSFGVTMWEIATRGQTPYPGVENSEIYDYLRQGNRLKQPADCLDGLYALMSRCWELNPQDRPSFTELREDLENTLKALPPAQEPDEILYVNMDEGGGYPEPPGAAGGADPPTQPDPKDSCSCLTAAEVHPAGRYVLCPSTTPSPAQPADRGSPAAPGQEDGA
KDR (phospho-KDR, VEGF165-stimulated HUVEC cells), sequence (P35968 20-1356): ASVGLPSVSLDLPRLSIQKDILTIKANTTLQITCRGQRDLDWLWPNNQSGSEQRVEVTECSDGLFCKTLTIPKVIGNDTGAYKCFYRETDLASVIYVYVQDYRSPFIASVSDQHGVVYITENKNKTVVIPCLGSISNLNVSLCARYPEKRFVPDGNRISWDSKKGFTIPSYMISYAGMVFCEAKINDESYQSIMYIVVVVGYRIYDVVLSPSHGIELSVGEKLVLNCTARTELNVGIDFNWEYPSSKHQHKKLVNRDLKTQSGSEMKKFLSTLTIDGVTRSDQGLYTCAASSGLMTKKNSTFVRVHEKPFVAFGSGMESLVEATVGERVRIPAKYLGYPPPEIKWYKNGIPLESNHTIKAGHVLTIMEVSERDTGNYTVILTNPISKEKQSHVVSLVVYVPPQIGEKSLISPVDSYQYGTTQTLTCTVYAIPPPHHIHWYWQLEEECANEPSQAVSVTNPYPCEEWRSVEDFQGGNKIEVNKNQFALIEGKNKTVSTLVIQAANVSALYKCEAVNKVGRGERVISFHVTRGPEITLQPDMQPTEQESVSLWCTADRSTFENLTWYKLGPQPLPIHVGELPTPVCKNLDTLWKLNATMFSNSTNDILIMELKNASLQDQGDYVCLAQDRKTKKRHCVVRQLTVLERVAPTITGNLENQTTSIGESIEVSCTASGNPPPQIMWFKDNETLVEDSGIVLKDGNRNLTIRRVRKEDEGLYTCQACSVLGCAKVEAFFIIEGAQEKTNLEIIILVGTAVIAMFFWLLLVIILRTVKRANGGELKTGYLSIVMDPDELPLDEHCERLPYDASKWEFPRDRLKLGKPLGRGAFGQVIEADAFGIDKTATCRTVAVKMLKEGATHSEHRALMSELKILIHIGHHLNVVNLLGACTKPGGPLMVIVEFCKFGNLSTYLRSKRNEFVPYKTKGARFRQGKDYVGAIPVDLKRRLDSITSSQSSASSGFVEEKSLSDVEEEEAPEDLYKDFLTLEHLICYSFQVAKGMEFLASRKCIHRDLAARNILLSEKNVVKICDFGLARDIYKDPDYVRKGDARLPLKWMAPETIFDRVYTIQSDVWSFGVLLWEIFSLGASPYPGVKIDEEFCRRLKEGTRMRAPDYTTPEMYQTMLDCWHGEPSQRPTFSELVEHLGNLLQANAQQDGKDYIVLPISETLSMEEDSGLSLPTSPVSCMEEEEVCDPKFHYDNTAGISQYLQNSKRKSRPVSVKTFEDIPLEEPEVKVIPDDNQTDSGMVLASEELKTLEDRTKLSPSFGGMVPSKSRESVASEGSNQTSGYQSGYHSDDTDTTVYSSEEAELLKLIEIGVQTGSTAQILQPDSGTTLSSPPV
Mer (phospho-Mer, MERTK-transfected 293A cells), sequence (Q12866 21-999): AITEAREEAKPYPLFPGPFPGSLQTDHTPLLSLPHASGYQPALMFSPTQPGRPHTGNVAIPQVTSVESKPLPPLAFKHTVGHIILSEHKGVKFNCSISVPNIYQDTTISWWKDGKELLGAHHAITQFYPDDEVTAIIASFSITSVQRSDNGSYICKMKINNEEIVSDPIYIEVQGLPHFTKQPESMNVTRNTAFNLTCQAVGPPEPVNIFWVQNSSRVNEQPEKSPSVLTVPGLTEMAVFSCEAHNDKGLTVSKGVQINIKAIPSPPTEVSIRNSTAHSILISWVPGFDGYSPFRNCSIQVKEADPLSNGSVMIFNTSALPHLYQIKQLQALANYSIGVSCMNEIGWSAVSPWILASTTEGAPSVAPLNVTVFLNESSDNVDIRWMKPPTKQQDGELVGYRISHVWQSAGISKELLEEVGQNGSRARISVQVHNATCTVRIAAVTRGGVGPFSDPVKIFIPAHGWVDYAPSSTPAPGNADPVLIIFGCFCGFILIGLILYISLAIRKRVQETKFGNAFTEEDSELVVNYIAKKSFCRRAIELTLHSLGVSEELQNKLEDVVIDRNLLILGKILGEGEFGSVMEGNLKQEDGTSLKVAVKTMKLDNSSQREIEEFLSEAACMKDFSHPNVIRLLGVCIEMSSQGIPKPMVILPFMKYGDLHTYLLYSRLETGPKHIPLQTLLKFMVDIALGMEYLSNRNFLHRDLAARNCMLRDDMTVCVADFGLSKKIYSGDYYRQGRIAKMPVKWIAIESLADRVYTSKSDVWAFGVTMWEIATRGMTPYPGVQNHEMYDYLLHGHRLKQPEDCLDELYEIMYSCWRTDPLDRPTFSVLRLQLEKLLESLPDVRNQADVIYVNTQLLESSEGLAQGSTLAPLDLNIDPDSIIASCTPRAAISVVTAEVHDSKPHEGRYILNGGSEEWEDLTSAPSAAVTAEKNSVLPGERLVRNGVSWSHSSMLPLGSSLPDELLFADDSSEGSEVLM

Compound	IC50 [1]	IC50 [2]	IC50 [3]	IC50 [4]
COc1cc2nccc(Oc3ccc(NC(=O)c4c[nH]c(=S)n(-c5ccc(F)cc5)c4=O)cc3F)c2cc1OC [Compound 646, N-[4-(6,7-dimethoxyquinolin-4-yl)oxy-3-fluorophenyl]-3-(4-fluorophenyl)-4-oxo-2-sulfanylidene-1H-pyrimidine-5-carboxamide]	< 0.1 µM	< 0.1 µM	< 0.1 µM	< 0.1 µM
COc1cc2nccc(Oc3ccc(NC(=O)c4c(Cl)n(C)c(C)c(-c5ccc(F)cc5)c4=O)cc3F)c2nc1OC [Compound 647, 2-chloro-N-[4-[(6,7-dimethoxy-1,5-naphthyridin-4-yl)oxy]-3-fluorophenyl]-5-(4-fluorophenyl)-1,6-dimethyl-4-oxopyridine-3-carboxamide]	< 0.1 µM	< 0.1 µM	> 0.3 µM	< 0.1 µM
COc1cc2nccc(Oc3ccc(NC(=O)c4c(OC)n(C)c(C)c(-c5ccc(F)cc5)c4=O)cc3F)c2nc1OC [Compound 648, N-[4-[(6,7-dimethoxy-1,5-naphthyridin-4-yl)oxy]-3-fluorophenyl]-5-(4-fluorophenyl)-2-methoxy-1,6-dimethyl-4-oxopyridine-3-carboxamide]	< 0.1 µM	< 0.1 µM	0.1 to 0.3 µM	< 0.1 µM
CNc1c(C(=O)Nc2ccc(Oc3ccnc4cc(OC)c(OC)nc34)c(F)c2)c(=O)c(-c2ccc(F)cc2)c(C)n1C [Compound 649, N-[4-[(6,7-dimethoxy-1,5-naphthyridin-4-yl)oxy]-3-fluorophenyl]-5-(4-fluorophenyl)-1,6-dimethyl-2-(methylamino)-4-oxopyridine-3-carboxamide]	0.1 to 0.3 µM	< 0.1 µM	> 0.3 µM	< 0.1 µM
COCCOc1nc2c(Oc3ccc(NC(=O)c4ccc(C)n(-c5ccc(F)cc5)c4=O)cc3F)ncnc2cc1OC [Compound 650, N-[3-fluoro-4-[7-methoxy-6-(2-methoxyethoxy)pyrido[3,2-d]pyrimidin-4-yl]oxyphenyl]-1-(4-fluorophenyl)-6-methyl-2-oxopyridine-3-carboxamide]	< 0.1 µM	< 0.1 µM	< 0.1 µM	< 0.1 µM
COc1cnc2c(Oc3ccc(NC(=O)c4c(CO)nc(C)c(-c5ccc(F)cc5)c4O)cc3F)ccnc2c1 [Compound 651, N-[3-fluoro-4-[(7-methoxy-1,5-naphthyridin-4-yl)oxy]phenyl]-5-(4-fluorophenyl)-4-hydroxy-2-(hydroxymethyl)-6-methylpyridine-3-carboxamide]	< 0.1 µM	< 0.1 µM	< 0.1 µM	< 0.1 µM
COc1cc2nccc(Oc3ccc(NC(=O)c4c(CO)nc(C)c(-c5ccc(F)cc5)c4O)cc3F)c2nc1OC [Compound 652, N-[4-[(6,7-dimethoxy-1,5-naphthyridin-4-yl)oxy]-3-fluorophenyl]-5-(4-fluorophenyl)-4-hydroxy-2-(hydroxymethyl)-6-methylpyridine-3-carboxamide]	< 0.1 µM	< 0.1 µM	< 0.1 µM	< 0.1 µM
COc1cc2nccc(Oc3ccc(NC(=O)c4c(C)[nH]nc(-c5ccc(F)cc5)c4=O)cc3F)c2nc1OC [Compound 653, N-[4-[(6,7-dimethoxy-1,5-naphthyridin-4-yl)oxy]-3-fluorophenyl]-3-(4-fluorophenyl)-6-methyl-4-oxo-1H-pyridazine-5-carboxamide]	< 0.1 µM	< 0.1 µM	< 0.1 µM	< 0.1 µM
COc1cc2nccc(Oc3ccc(NC(=O)c4c(C)c(C(C)=O)cn(-c5ccc(F)cc5)c4=O)cc3F)c2nc1OC [Compound 654, 5-acetyl-N-[4-[(6,7-dimethoxy-1,5-naphthyridin-4-yl)oxy]-3-fluorophenyl]-1-(4-fluorophenyl)-4-methyl-2-oxopyridine-3-carboxamide]	< 0.1 µM	< 0.1 µM	< 0.1 µM	< 0.1 µM
COc1cc2nccc(Oc3ccc(NC(=O)c4c(C)n(C)nc(-c5ccc(F)cc5)c4=O)cc3F)c2nc1OC [Compound 655, N-[4-[(6,7-dimethoxy-1,5-naphthyridin-4-yl)oxy]-3-fluorophenyl]-6-(4-fluorophenyl)-2,3-dimethyl-5-oxopyridazine-4-carboxamide]	< 0.1 µM	< 0.1 µM	< 0.1 µM	< 0.1 µM
COc1cnc2c(Oc3ccc(NC(=O)c4cc(C(C)=O)c(C)n(-c5ccc(F)cc5)c4=O)cc3F)ccnc2c1 [Compound 656, 5-acetyl-N-[3-fluoro-4-[(7-methoxy-1,5-naphthyridin-4-yl)oxy]phenyl]-1-(4-fluorophenyl)-6-methyl-2-oxopyridine-3-carboxamide]	< 0.1 µM	< 0.1 µM	> 0.3 µM	< 0.1 µM
COc1cc2nccc(Oc3ccc(NC(=O)c4c(C)nnc(-c5ccc(F)cc5)c4OC)cc3F)c2nc1OC [Compound 657, N-[4-[(6,7-dimethoxy-1,5-naphthyridin-4-yl)oxy]-3-fluorophenyl]-6-(4-fluorophenyl)-5-methoxy-3-methylpyridazine-4-carboxamide]	< 0.1 µM	< 0.1 µM	< 0.1 µM	< 0.1 µM
COc1cnc2c(Oc3ccc(NC(=O)c4cnc(C5CC5)c(-c5ccc(F)cc5)c4O)cc3F)ccnc2c1 [Compound 658, 6-cyclopropyl-N-[3-fluoro-4-[(7-methoxy-1,5-naphthyridin-4-yl)oxy]phenyl]-5-(4-fluorophenyl)-4-hydroxypyridine-3-carboxamide]	< 0.1 µM	< 0.1 µM	> 0.3 µM	< 0.1 µM
COc1cc2nccc(Oc3ccc(NC(=O)c4cc(C(C)=O)c(C)n(-c5ccc(F)cc5)c4=O)cc3)c2nc1OC [Compound 659, 5-acetyl-N-[4-[(6,7-dimethoxy-1,5-naphthyridin-4-yl)oxy]phenyl]-1-(4-fluorophenyl)-6-methyl-2-oxopyridine-3-carboxamide]	< 0.1 µM	< 0.1 µM	> 0.3 µM	< 0.1 µM
COc1cc2nccc(Oc3ccc(NC(=O)c4cn5c(c(-c6ccc(F)cc6)c4=O)COCC5)cc3)c2nc1OC [Compound 660, N-[4-[(6,7-dimethoxy-1,5-naphthyridin-4-yl)oxy]phenyl]-9-(4-fluorophenyl)-8-oxo-3,4-dihydro-1H-pyrido[2,1-c][1,4]oxazine-7-carboxamide]	< 0.1 µM	< 0.1 µM	0.1 to 0.3 µM	< 0.1 µM
COc1cnc2c(Oc3ccc(NC(=O)c4cn5c(c(-c6ccc(F)cc6)c4=O)COCC5)cc3F)ccnc2c1 [Compound 661, N-[3-fluoro-4-[(7-methoxy-1,5-naphthyridin-4-yl)oxy]phenyl]-9-(4-fluorophenyl)-8-oxo-3,4-dihydro-1H-pyrido[2,1-c][1,4]oxazine-7-carboxamide]	< 0.1 µM	< 0.1 µM	> 0.3 µM	< 0.1 µM
COc1cc2nccc(Oc3ccc(NC(=O)c4cnc(C5CC5)c(-c5ccc(F)cc5)c4O)cc3F)c2nc1OC [Compound 662, 6-cyclopropyl-N-[4-[(6,7-dimethoxy-1,5-naphthyridin-4-yl)oxy]-3-fluorophenyl]-5-(4-fluorophenyl)-4-hydroxypyridine-3-carboxamide]	< 0.1 µM	< 0.1 µM	0.1 to 0.3 µM	< 0.1 µM
COCc1nc(C)c(-c2ccc(F)cc2)c(OC)c1C(=O)Nc1ccc(Oc2ccnc3cc(OC)c(OC)nc23)c(F)c1 [Compound 663, N-[4-[(6,7-dimethoxy-1,5-naphthyridin-4-yl)oxy]-3-fluorophenyl]-5-(4-fluorophenyl)-4-methoxy-2-(methoxymethyl)-6-methylpyridine-3-carboxamide]	< 0.1 µM	< 0.1 µM	> 0.3 µM	< 0.1 µM
COc1cc2nccc(Oc3ccc(NC(=O)c4c(C)c(F)cn(-c5ccc(F)cc5)c4=O)cc3F)c2nc1OC [Compound 664, N-[4-[(6,7-dimethoxy-1,5-naphthyridin-4-yl)oxy]-3-fluorophenyl]-5-fluoro-1-(4-fluorophenyl)-4-methyl-2-oxopyridine-3-carboxamide]	< 0.1 µM	< 0.1 µM	< 0.1 µM	< 0.1 µM
COc1cc2nccc(Oc3ccc(NC(=O)c4c(C)c(F)cn(-c5ccc(F)cc5)c4=O)cc3)c2nc1OC [Compound 665, N-[4-[(6,7-dimethoxy-1,5-naphthyridin-4-yl)oxy]phenyl]-5-fluoro-1-(4-fluorophenyl)-4-methyl-2-oxopyridine-3-carboxamide]	< 0.1 µM	< 0.1 µM	0.1 to 0.3 µM	< 0.1 µM

— patent US12371428B2 (Exelixis, Inc., priority 2019, dated 2025)
